The source of these data is patent US9695133B2, “Quinazolinone-based oncogenic-RAS-selective lethal compounds and their use” (THE TRUSTEES OF COLUMBIA UNIVERSITY IN THE CITY OF NEW YORK, priority 2012, dated 2017).

Read-outs that look alike come from different tables or passages of the source.

Assay [1] concerns BJeH, BJeHLT, BJeLR and DRD cells. In kind it is cell-based. The following applies: for RSL phenotype (oncogenic-RAS-selective lethality): four BJ-derived cell lines, with and without HRAS G12V; for Selectivity score: EC50 (BJeH)/EC50 (BJeLR).
In another assay the test system is BJeLR cells. The assay can be described thus: RSL testing: growth inhibition (alamar blue) in BJeLR cells. The format is cell-based. The following applies: Homo sapiens. The method, then:
Cell viability was determined using alamar blue and percent growth inhibition computed as described previously (Id.).
A general note: The colour change of resazurin is a common sign of viable cells or microbes.

Where [2] appears, read: cell line not in head, footnote names EC50 (BJeLR), read-out: EC50.

`CC(C)Oc1ccc(C=O)cc1-n1c(CN2CCN(C(=O)COc3ccc(Cl)cc3)CC2)nc2ccccc2c1=O` [AE, 3-(2-((4-(2-(4-chlorophenoxy)ethanoyl)piperazin-1-yl)methyl)-4-oxoquinazolin-3(4H)-yl)-4-isopropoxybenzaldehyde]: the “RSL phenotype (oncogenic-RAS-selective lethality)” value in assay [1] is “retained the RSL phenotype”.

In the case of `Nc1nc[nH]n1` [ATZ], in assay [1], the “RSL phenotype (oncogenic-RAS-selective lethality)” value was “none of the other anti-oxidant targeting compounds displayed an RSL phenotype”.

The EC50 is the concentration giving half of the maximal effect. On to `CCN(CC)Cc1ccc(OC(C)C)c(-n2c(CN3CCN(C(=O)COc4ccc(Cl)cc4)CC3)nc3ccccc3c2=O)c1` [Compound 15], for which the concentration giving a half-maximal response (EC50) with BJeLR cells (BJeLR, read-out: EC50 (BJeLR)) was 1680 nM. The compound also gave a Selectivity score in assay [1] of 4.1.

In the case of `CC(C)Oc1ccc(N2CCN(C)CC2)cc1-n1c(CN2CCN(C(=O)COc3ccc(Cl)cc3)CC2)nc2ccccc2c1=O` [Compound 17], the EC50 in the assay with BJeLR cells (BJeLR, read-out: EC50 (BJeLR)) was found to be 900 nM. Also, in assay [1], the Selectivity score is 7.3.

`COCCN(CCOC)Cc1ccc(OC(C)C)c(-n2c(CN3CCN(C(=O)COc4ccc(Cl)cc4)CC3)nc3ccccc3c2=O)c1` [Compound 18]: the EC50 in the assay with BJeLR cells (BJeLR, read-out: EC50 (BJeLR)) came to 140 nM. Moreover, the Selectivity score in assay [1] came to 5.9.

On to `CC(C)Oc1ccc(CN(C)CCC#N)cc1-n1c(CN2CCN(C(=O)COc3ccc(Cl)cc3)CC2)nc2ccccc2c1=O` [Compound 19], for which the 50% effective concentration (EC50) with BJeLR cells (BJeLR, read-out: EC50 (BJeLR)) worked out at 260 nM. For the same compound, the Selectivity score in assay [1] was 5.1.

For `CC(C)Oc1ccc(CN(C)CCO)cc1-n1c(CN2CCN(C(=O)COc3ccc(Cl)cc3)CC2)nc2ccccc2c1=O` [Compound 21], the EC50 in the assay with BJeLR cells (BJeLR, read-out: EC50 (BJeLR)) stood at 360 nM. This compound also showed a Selectivity score in assay [1] of 3.7.

On to `CC(C)Oc1ccc(CNCCCN(C)C)cc1-n1c(CN2CCN(C(=O)COc3ccc(Cl)cc3)CC2)nc2ccccc2c1=O` [Compound 22], for which, in the assay with BJeLR cells (BJeLR, read-out: EC50 (BJeLR)), the EC50 was 2300 nM. Also, in assay [1], the Selectivity score turned out to be 3.3.

With `CC(C)Oc1ccc(CN2CCN(CCO)CC2)cc1-n1c(CN2CCN(C(=O)COc3ccc(Cl)cc3)CC2)nc2ccccc2c1=O` [Compound 23], in the assay with BJeLR cells (BJeLR, read-out: EC50 (BJeLR)), the EC50 stood at 1200 nM. The Selectivity score in assay [1] came to 2.8.

On to `CC(C)Oc1ccc(CNCCOCCO)cc1-n1c(CN2CCN(C(=O)COc3ccc(Cl)cc3)CC2)nc2ccccc2c1=O` [Compound 24], for which, in the assay with BJeLR cells (BJeLR, read-out: EC50 (BJeLR)), the EC50 was 2100 nM. The Selectivity score in assay [1] amounted to 2.5.

Take `CC(C)Oc1ccc(CN2CCOCC2)cc1-n1c(CN2CCN(C(=O)COc3ccc(Cl)cc3)CC2)nc2ccccc2c1=O` [Compound 40, 2-((4-(2-(4-chlorophenoxy)ethanoyl)piperazin-1-yl)methyl)-3-(2-isopropoxy-5-(morpholinomethyl)phenyl)quinazolin-4(3H)-one]: the EC50 came out at 130 nM in the assay with BJeLR cells (BJeLR, read-out: EC50 (BJeLR)) and 130 nM in the assay with BJeLR cells (setting [2]).

With `CC(C)Oc1c(CN2CCOCC2)cccc1-n1c(CN2CCN(C(=O)COc3ccc(Cl)cc3)CC2)nc2ccccc2c1=O` [Compound 51], the concentration for a half-maximal effect (EC50) with BJeLR cells (setting [2]) is 1170 nM.

Take `O=[N+]([O-])c1ccc(Cl)c(Cl)c1` [DCNB]: in assay [1], the “RSL phenotype (oncogenic-RAS-selective lethality)” value is “none of the other anti-oxidant targeting compounds displayed an RSL phenotype”.

Consider `CCN(CC)C(=S)S` [DETC], for which, in assay [1], the “RSL phenotype (oncogenic-RAS-selective lethality)” value is reported as “none of the other anti-oxidant targeting compounds displayed an RSL phenotype”.

On to `CN(C)C(=O)/N=N/C(=O)N(C)C` [DIA], for which the “RSL phenotype (oncogenic-RAS-selective lethality)” value in assay [1] was “none of the other anti-oxidant targeting compounds displayed an RSL phenotype”.

As to `CC(C)Oc1ccncc1-n1c(CN2CCN(C(=O)COc3ccc(Cl)cc3)CC2)nc2ccccc2c1=O` [PYR, 2-((4-(2-(4-chlorophenoxy)ethanoyl)piperazin-1-yl)methyl)-3-(4-isopropoxypyridin-3-yl)quinazolin-4(3H)-one], the “RSL phenotype (oncogenic-RAS-selective lethality)” value in assay [1] is recorded as “did not display lethality”.

Turning to `CC(C)Oc1ccccc1-n1c(CN2CCN(C(=O)c3ccc(Cl)cc3)CC2)nc2ccccc2c1=O` [dMK, 2-((4-(4-chlorophenylcarbonyl)piperazin-1-yl)methyl)-3-(2-isopropoxyphenyl)quinazolin-4(3H)-one], the “RSL phenotype (oncogenic-RAS-selective lethality)” value in assay [1] is on record as “did not display lethality”.
